The values below come from patent publication US20250075337A1, “SATURATED QUATERNARY AMMONIUM COMPOUNDS, GLUTARALDEHYDE, AND TETRAKIS(HYDROXYMETHYL)PHOSPHONIUM SULFATE FOR CORROSION INHIBITION, CLEANING, AND BIOCIDAL EFFICACY IN HYDROGEN SYSTEMS” (ChampionX LLC, priority 2023, published 2025).

The test in a line: Bubble cell test, corrosion rate by linear polarization resistance (LPR). To be noted: 80° C., CO2 saturated 3% NaCl brine; 100 ppm active; about 15 hours after CI injection; versus uninhibited carbon steel electrode. The procedure: Examples were conducted to assess the corrosion inhibition of a saturated alkyl diquaternary compounds of structure (IIIa) as described above using a bubble cell test to assess corrosion performance using linear polarization resistance testing. The corrosion inhibitor (CI) was evaluated without combination of any other chemistries or formulation components.
The corrosion rate was measured by Linear Polarization Resistance (LPR) techniques. The working electrode used was carbon steel (C1018 grade). The counter and reference electrodes were both 1018 carbon steel. The electrodes were all cleaned and polished prior to testing.
The test conditions included: 80° C., CO2 saturated fluids with 3% NaCl brine (100% brine) with continuous CO2 sparge, atmospheric pressure. A pre-corrosion time (i.e. with no corrosion inhibitor) was carried out for about 3 hours before 500 ppm of a 20% active chemistry in solvent blend was added. This is equivalent to 100 ppm of the active chemistry being introduced into the test cell. The inhibited corrosion rate at about 15 hours after CI chemical injection was noted and a percentage inhibition determined by comparing with the corrosion rate of a carbon steel electrode under otherwise the same conditions in the absence of chemical corrosion inhibitor after the same time of exposure to the corrosive environment.

For the compound `CCCCCCCCCCCCCCCCCC[N+](C)(C)CC(O)C[N+](CCO)(CCO)CCO` (stereo not shown) [CI Structure IIIa], the “% Protection” value was above 99%.
